Measurements reported in patent publication US8575135B2 (Gilead Sciences, Inc., priority 2011, dated 2013).
Where two headings read alike, the source gives them in different places.

What was measured:
[1] = tested on: stable HCV 1a RLuc replicon cells (genotype 1a H77 replicon); assay: microbe, parasite or virus in culture; type: cell-based; settings: Hepatitis C virus
[2] = tested on: stable HCV 1b RLuc replicon cells (genotype 1b Con1 replicon); assay: microbe, parasite or virus in culture; type: cell-based; settings: Hepatitis C virus, read-out: 1b (nM)
[3] = tested on: 1a Pi-Rluc replicon with Q30R in genotype 1a NS5A; assay: microbe, parasite or virus in culture; type: cell-based, HCV; settings: Hepatitis C virus
Summary of the method: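 Q30R introduced by site-directed mutagenesis into genotype 1a Pi-RLuc replicon; RNA transiently transfected into Huh-7-derived cured-51 cells.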

[4] = IV and PO single dose pharmacokinetic studies in SD rats; type: in vivo; settings: male, Sprague-Dawley, rat, plasma, IV infusion 1 mg/kg vs oral gavage 2 mg/kg, read-out: Rat % F
Procedure: IV and PO Single Dose Pharmacokinetic Studies in SD Rats: The pharmacokinetics of selected compounds was characterized in male Sprague-Dawley (SD) rats (250-300g). […] The intravenous (IV) dosing vehicle was 5% ethanol, 35% polyethylene glycol 400 (PEG 400) and 60% water pH 2.0. […] Serial blood samples (approximately 0.3 mL each) were collected from jugular vein or other suitable vein at specified time points. […] The blood samples were collected into Vacutainer™ tubes containing EDTA-K3 as the anti-coagulant and were centrifuged at approximately 4° C. to obtain plasma. The plasma samples were stored at −20° C. until analysis by LC/MS/MS. A bioanalytical method utilizing high performance liquid chromatography coupled to tandem mass spectrometry (LC/MS/MS) was developed for analysis of the selected compound in rat plasma. Detection was performed using selected reaction monitoring (SRM); […] Standard curve and quality control samples were prepared in male rat plasma and processed in the same way as the test samples to generate quantitative data. Pharmacokinetic parameters were generated using non-compartmental pharmacokinetic analysis (Phoenix WinNonlin, version 6.3). Values below the lower limit of quantification (LLOQ) were assigned a value of zero if predose and treated as missing thereafter. Area under the curve (AUC) was calculated using the linear trapezoidal rule. The oral bioavailability (% F) was determined by comparison of the area under the curve (AUC) of the compound and/or a metabolite generated in plasma following oral administration to that generated following intravenous administration.

[5] = tested on: NS5A chimeric genotype 2a JFH-1 replicon with genotype 2b MD2b-1 strain NS5A gene (M31 present); assay: microbe, parasite or virus in culture; type: cell-based, HCV; settings: Hepatitis C virus
Summary of the method: (§1)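 Con1 1b replicons carrying 3a S52 or 4a ED43 NS5A with Pi-RLuc reporter were transiently transfected into Huh-Lunet cells; 2b MD2b-1 NS5A (M31) in JFH-1 2a backbone with RLuc-Neo, transient or stable.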

[6] = tested on: NS5A chimeric genotype 1b Con1 replicon with genotype 3a S52 strain NS5A gene; assay: microbe, parasite or virus in culture; type: cell-based, HCV; settings: Hepatitis C virus
Summary of the method: as §1

[7] = tested on: NS5A chimeric genotype 2a JFH-1 replicon with genotype 2a J6 strain NS5A gene (M31 present); assay: microbe, parasite or virus in culture; type: cell-based, HCV; settings: Hepatitis C virus
[8] = tested on: stable HCV 2a JFH-1 Rluc replicon cells (L31 present in NS5A); assay: microbe, parasite or virus in culture; type: cell-based; settings: Hepatitis C virus

COC[C@H]1C[C@@H](c2ncc(-c3ccc4c(c3)COc3cc5c(ccc6nc([C@@H]7CC[C@H](C)N7C(=O)[C@@H](NC(=O)OC)C(C)C)[nH]c65)cc3-4)[nH]2)N(C(=O)[C@@H](NC(=O)OC)[C@H](C)OC)C1 [Example QA, Methyl {(2S)-1-[(2S,5S)-2-(9-{2-[(2S,4S)-1-{(2S,3S)-3-methoxy-2-[(methoxycarbonyl)amino]butanoyl}-4-(methoxymethyl)pyrrolidin-2-yl]-1H-imidazol-5-yl}-1,11-dihydroisochromeno[4′,3′:6,7]naphtho[1,2-d]imidazol-2-yl)-5-methylpyrrolidin-1-yl]-3-methyl-1-oxobutan-2-yl}carbamate]
EC50 ([1]; read-out: 1a): < 1 nM
EC50 ([1]; read-out: 1a (nM)): 0.012 nM
EC50 [2]: 0.013 nM
EC50 ([3]; read-out: 1a Q30R): < 1 nM
EC50 ([3]; read-out: 1a Q30R (nM)): 0.045 nM
bioavailability [4]: 7.46%
EC50 ([5]; read-out: 2b): < 1 nM
EC50 ([5]; read-out: 2b (s) (nM)): 0.04 nM
EC50 ([5]; read-out: 2b (t) (nM)): 0.052 nM
EC50 ([6]; read-out: 3a): < 1 nM
EC50 ([6]; read-out: 3a (nM)): 0.038 nM
EC50 ([7]; read-out: 2a J6): < 1 nM
EC50 ([7]; read-out: 2a Jb (t) (nM)): 0.094 nM
EC50 ([8]; read-out: 2a JFH): < 1 nM
EC50 ([8]; read-out: 2a JFH (nM)): 0.007 nM
